Test results reported in ChEMBL document CHEMBL1201862, “PubChem BioAssay data set” (2004).
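Following 48 hours of exposure in 96-well plates, responses at five concentrations were used to interpolate endpoints linearly. GI50 marks 50% less growth.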 Activity calls are given as the source filed them. Cut-off read from the data, not from the text of the source: active = GI50 up to about 1.1 µM and inactive = higher.

How the values were obtained:
Assay in all cases: growth of human tumour cells (NCI), 48 h
Malme-3M = tested on: Malme-3M
BT-549 = tested on: BT-549
UO-31 = tested on: UO-31
SK-MEL-28 = tested on: SK-MEL-28
MDA-MB-231 = tested on: MDA-MB-231
UACC-257 = tested on: UACC-257
U-251 = tested on: U-251
OVCAR-3 = tested on: OVCAR-3
M14 = tested on: M14
NCI-H460 = tested on: NCI-H460
NCI-H23 = tested on: NCI-H23
MDA-N = tested on: MDA-N
Hs-578T = tested on: Hs-578T
MCF7 = tested on: MCF7
A549 = tested on: A549
HCC 2998 = tested on: HCC 2998
HOP-92 = tested on: HOP-92
786-0 = tested on: 786-0
HCT-116 = tested on: HCT-116
SK-MEL-5 = tested on: SK-MEL-5
OVCAR-5 = tested on: OVCAR-5
EKVX = tested on: EKVX
SN12C = tested on: SN12C
IGROV-1 = tested on: IGROV-1
KM12 = tested on: KM12
SK-MEL-2 = tested on: SK-MEL-2
NCI/ADR-RES = tested on: NCI/ADR-RES
DU-145 = tested on: DU-145
PC-3 = tested on: PC-3
MOLT-4 = tested on: MOLT-4
SF-268 = tested on: SF-268
TK-10 = tested on: TK-10
RXF 393 = tested on: RXF 393
ACHN = tested on: ACHN
NCI-H522 = tested on: NCI-H522
SF-539 = tested on: SF-539
RPMI-8226 = tested on: RPMI-8226
HL-60 = tested on: HL-60
SNB-19 = tested on: SNB-19
HCT-15 = tested on: HCT-15
LOX IMVI = tested on: LOX IMVI
HOP-62 = tested on: HOP-62
SNB-75 = tested on: SNB-75
CCRF-CEM = tested on: CCRF-CEM
K562 = tested on: K562
NCI-H226 = tested on: NCI-H226
OVCAR-8 = tested on: OVCAR-8
COLO 205 = tested on: COLO 205
SW-620 = tested on: SW-620
MDA-MB-435 = tested on: MDA-MB-435
SF-295 = tested on: SF-295
CAKI-1 = tested on: CAKI-1
HT-29 = tested on: HT-29
SR = tested on: SR
A498 = tested on: A498
T47D = tested on: T47D
UACC-62 = tested on: UACC-62
SK-OV-3 = tested on: SK-OV-3

With `Cc1ccc(NC(=O)CC(=O)N2N=C(c3ccccc3)C(/N=N/c3ccc(S(=O)(=O)CCOS(=O)(=O)O)cc3)C2=O)cc1` (stereo unspecified) the GI50 (Malme-3M) was > 100 µM (inactive), the GI50 (BT-549) was > 100 µM (inactive) and the GI50 (UO-31) was > 100 µM (inactive). For the same compound, the GI50 (SK-MEL-28) was > 100 µM (inactive), the GI50 (MDA-MB-231) was > 100 µM (inactive) and the GI50 (UACC-257) was > 100 µM (inactive). For the same compound, the GI50 (U-251) was 41.8 µM (inactive), the GI50 (OVCAR-3) was > 100 µM (inactive) and the GI50 (M14) was > 100 µM (inactive). For the same compound, the GI50 (NCI-H460) was > 100 µM (inactive), the GI50 (NCI-H23) was 23.6 µM (inactive) and the GI50 (MDA-N) was > 100 µM (inactive). The GI50 (Hs-578T) was 29.2 µM (inactive), the GI50 (MCF7) was 65.9 µM (inactive) and the GI50 (A549) was > 100 µM (inactive). The GI50 (HCC 2998) was > 100 µM (inactive), the GI50 (HOP-92) was > 100 µM (inactive) and the GI50 (786-0) was 60.5 µM (inactive). The GI50 (HCT-116) was 57.9 µM (inactive), the GI50 (SK-MEL-5) was > 100 µM (inactive) and the GI50 (OVCAR-5) was > 100 µM (inactive). The GI50 (EKVX) was > 100 µM (inactive), the GI50 (SN12C) was > 100 µM (inactive) and the GI50 (IGROV-1) was 41.6 µM (inactive). For the same compound, the GI50 (KM12) was 86.3 µM (inactive), the GI50 (SK-MEL-2) was 57.1 µM (inactive) and the GI50 (NCI/ADR-RES) was > 100 µM (inactive). For the same compound, the GI50 (DU-145) was > 100 µM (inactive), the GI50 (PC-3) was > 100 µM (inactive) and the GI50 (MOLT-4) was > 100 µM (inactive). For the same compound, the GI50 (SF-268) was > 100 µM (inactive), the GI50 (TK-10) was > 100 µM (inactive) and the GI50 (RXF 393) was > 100 µM (inactive). For the same compound, the GI50 (ACHN) was > 100 µM (inactive), the GI50 (NCI-H522) was 58.6 µM (inactive) and the GI50 (SF-539) was > 100 µM (inactive). The GI50 (RPMI-8226) was > 100 µM (inactive), the GI50 (HL-60) was > 100 µM (inactive) and the GI50 (SNB-19) was > 100 µM (inactive). The GI50 (HCT-15) was > 100 µM, the GI50 (LOX IMVI) was > 100 µM (inactive) and the GI50 (HOP-62) was 77.6 µM (inactive). For the same compound, the GI50 (SNB-75) was > 100 µM (inactive), the GI50 (CCRF-CEM) was > 100 µM (inactive) and the GI50 (K562) was > 100 µM (inactive). The GI50 (NCI-H226) was > 100 µM (inactive), the GI50 (OVCAR-8) was 64.3 µM (inactive) and the GI50 (COLO 205) was > 100 µM (inactive). For the same compound, the GI50 (SW-620) was > 100 µM (inactive), the GI50 (MDA-MB-435) was > 100 µM (inactive) and the GI50 (SF-295) was > 100 µM (inactive). For the same compound, the GI50 (CAKI-1) was > 100 µM (inactive), the GI50 (HT-29) was > 100 µM (inactive) and the GI50 (SR) was > 100 µM (inactive). For the same compound, the GI50 (A498) was > 100 µM (inactive).

With `CCN(CC)C(=S)SS(=O)(=O)c1ccc([N+](=O)[O-])cc1` the GI50 (Malme-3M) was 14.9 µM (inactive), the GI50 (BT-549) was 36.8 µM (inactive) and the GI50 (UO-31) was 21.7 µM (inactive). The GI50 (T47D) was 43.2 µM (inactive), the GI50 (U-251) was 14.5 µM (inactive) and the GI50 (NCI-H460) was 96.2 µM (inactive). For the same compound, the GI50 (NCI-H23) was 56.8 µM (inactive), the GI50 (A549) was 1.18 µM (inactive) and the GI50 (786-0) was 16.7 µM (inactive). For the same compound, the GI50 (SK-MEL-5) was 2.77 µM (inactive), the GI50 (OVCAR-5) was > 100 µM (inactive) and the GI50 (EKVX) was > 100 µM (inactive). The GI50 (UACC-62) was 27.4 µM (inactive), the GI50 (SK-MEL-2) was 48.3 µM (inactive) and the GI50 (NCI-H522) was 0.0282 µM (active). The GI50 (SF-539) was 21.2 µM (inactive), the GI50 (RPMI-8226) was 12.8 µM (inactive) and the GI50 (SNB-19) was 76.7 µM (inactive). The GI50 (LOX IMVI) was 17.5 µM (inactive), the GI50 (K562) was 19.4 µM (inactive) and the GI50 (OVCAR-8) was 20.4 µM (inactive). For the same compound, the GI50 (COLO 205) was 19.9 µM (inactive), the GI50 (SK-OV-3) was > 100 µM (inactive) and the GI50 (CAKI-1) was 18.8 µM (inactive). For the same compound, the GI50 (SR) was 0.148 µM (active) and the GI50 (A498) was > 100 µM (inactive).
